Consider 19 compounds from patent publication US9840498B2, “Substituted quinazolin-4-one derivatives” (NOVARTIS AG, priority 2013, dated 2017).

Sequence of PI3K gamma (P48736 whole entry): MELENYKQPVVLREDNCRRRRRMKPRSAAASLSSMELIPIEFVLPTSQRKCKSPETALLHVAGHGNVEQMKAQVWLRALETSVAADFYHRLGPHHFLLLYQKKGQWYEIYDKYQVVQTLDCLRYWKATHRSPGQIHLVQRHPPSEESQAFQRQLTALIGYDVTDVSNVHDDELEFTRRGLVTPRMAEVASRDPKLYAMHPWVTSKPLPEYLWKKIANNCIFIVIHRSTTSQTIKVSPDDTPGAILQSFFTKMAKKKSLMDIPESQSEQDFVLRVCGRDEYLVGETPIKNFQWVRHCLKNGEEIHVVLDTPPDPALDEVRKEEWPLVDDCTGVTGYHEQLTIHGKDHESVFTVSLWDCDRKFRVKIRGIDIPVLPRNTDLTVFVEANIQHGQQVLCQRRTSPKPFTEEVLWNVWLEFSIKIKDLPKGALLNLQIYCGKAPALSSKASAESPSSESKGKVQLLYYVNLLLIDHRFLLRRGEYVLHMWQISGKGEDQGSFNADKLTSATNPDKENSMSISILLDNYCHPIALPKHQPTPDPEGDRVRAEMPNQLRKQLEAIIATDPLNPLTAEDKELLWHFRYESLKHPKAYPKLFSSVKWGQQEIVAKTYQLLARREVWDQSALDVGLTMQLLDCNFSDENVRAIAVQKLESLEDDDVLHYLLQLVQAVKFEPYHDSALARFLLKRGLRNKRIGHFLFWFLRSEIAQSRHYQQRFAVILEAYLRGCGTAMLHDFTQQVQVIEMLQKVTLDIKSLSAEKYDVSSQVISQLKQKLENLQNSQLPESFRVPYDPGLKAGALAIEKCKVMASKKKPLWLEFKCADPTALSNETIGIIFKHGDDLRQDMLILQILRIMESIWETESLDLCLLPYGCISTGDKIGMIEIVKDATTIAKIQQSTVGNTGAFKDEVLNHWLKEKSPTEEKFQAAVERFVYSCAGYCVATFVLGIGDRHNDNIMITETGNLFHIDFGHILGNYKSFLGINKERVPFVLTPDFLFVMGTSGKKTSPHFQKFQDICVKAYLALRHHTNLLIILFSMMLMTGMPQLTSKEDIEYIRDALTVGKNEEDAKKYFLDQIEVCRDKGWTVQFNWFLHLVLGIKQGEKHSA

The test deals with PI3K gamma (Homo sapiens (Human), UniProt P48736). The test can be described thus: Biochemical assay for PI3Kgamma (Adapta TR-FRET format). The conditions noted are these: enzymatic assay. From the text:
For the enzymatic assays, the preparation of PI3K gene constructs, protein expression and purification for HTS are described in WO2012/004299. […] The TR-FRET Adapta™ Universal Kinase Assay Kit was purchased from Invitrogen Corporation (Carlsbad/CA, USA) (Cat. No. PV5099). The kit contains the following reagents: Adapta Eu-anti-ADP Antibody (Europium labeled anti-ADP antibody in HEPES buffered saline, Cat. No. PV5097), Alexa Fluor® 647-labeled ADP tracer (Alexa Fluor® 647-labeled ADP tracer in HEPES buffered saline, Cat. No. PV5098), proprietary TR-FRET dilution buffer pH 7.5 (Cat. No. PV3574). PIK3CD substrate Phosphatidylinositol was obtained from Invitrogen (vesicules consisting of 2 mM PI in 50 mM HEPES pH7.5; Cat. No. PV5371). PIK3CG substrate Phosphatidylinositol-4,5-bisphosphate (PIP(4,5)2 was obtained from Invitrogen (PIP2:PS large unilamellar vesicules consisting of 1 mM PI P2: 19 mM PS in 50 mM HEPES pH7.5, 3 mM MgCl2, 1 mM EGTA; Cat. No. PV5100). Time-Resolved Fluorescence Resonance Energy Transfer (TR-FRET) is a technology based on energy transfer between two adjacent dyes, from an excited electron in one dye (the donor) to an electron of an adjacent dye (the acceptor) through resonance, then released as a photon. This energy transfer is detected by an increase in the fluorescence emission of the acceptor, and a decrease in the fluorescence emission of the donor. TR-FRET assays for protein kinases use a long-lifetime lanthanide Terbium or Europium chelates as the donor species which overcome interference from compound autofluorescence or light scatter from precipitated compounds, by introducing a delay after excitation by a flashlamp excitation source. Results are often expressed as a ratio of the intensities of the acceptor and donor fluorophores. The ratiometric nature of such a value corrects for differences in assay volumes between wells, as well as corrects for quenching effects due to colored compounds. The Adapta™ assay can be divided into two phases: a kinase reaction phase and an ADP detection phase. In the kinase reaction phase, all kinase reaction components are added to the well and the reaction is allowed to incubate for a set period of time specific for each kinase. After the reaction, a detection solution of Eu-labeled anti-ADP antibody, Alexa Fluor® 647-labeled ADP tracer, and EDTA (to stop the kinase reaction) are added to the assay well. ADP formed by the kinase reaction will displace the Alexa Fluor® 647-labeled ADP tracer from the antibody, resulting in a decrease in TR-FRET signal. In the presence of an inhibitor, the amount of ADP formed by the kinase reaction is reduced, and the resulting intact antibody-tracer interaction maintains a high TR-FRET signal. In the Adapta™ assay, the donor (Europium-anti-ADP antibody) is excited at 340 nm and will transfer its energy to the acceptor (Alexa Fluor® 647-labeled ADP tracer). The emission from the Alexa Fluor® 647 can be monitored with a filter centered at 665 nm because it is located between the emission peaks of the donor, which is measured at 615/620 nm. 50 nL of compound dilutions were dispensed onto white 384-well small volume polystyrene plate as described in section 2.2. Then 5 μL of PI3Kgamma and PI3Kdelta and lipid substrate (PI or PIP2:PS) followed by 5 μL of ATP (final assay volume 10 μL) are incubated at RT. […] Reactions were stopped with 5 μL of a mixture of EDTA containing the Eu-labeled anti-ADP antibody and the Alexa Fluor® 647-labeled ADP tracer in TR-FRET dilution buffer (proprietary to IVG). Plates are read 15 to 60 mins later in a Synergy2 reader using an integration time of 0.4 seconds and a delay of 0.05 seconds. […] The control for the 0% inhibition was given by the solvent vehicle of the compounds (90% DMSO in H2O). Data are analyzed using Excel fit software or Graphpad Prism. EC50 values were derived by fitting a sigmoidal dose-response curve to a plot of assay readout over inhibitor concentration. […]
(Time-resolved FRET reads energy transfer from a long-lived donor to a nearby acceptor.)
`Cc1nc(N)nc(N2C[C@@H](O)C[C@H]2c2nc3ccc(F)c(-c4cnn(C)c4)c3c(=O)n2-c2ccccc2)c1C#N` [Example 1, 2-Amino-4-((2S,4S)-2-(6-fluoro-5-(1-methyl-1H-pyrazol-4-yl)-4-oxo-3-phenyl-3,4-dihydroquinazolin-2-yl)-4-hydroxypyrrolidin-1-yl)-6-methylpyrimidine-5-carbonitrile]: the half-maximal inhibitory concentration (IC50) worked out at 28 nM.

Take `Cn1cc(-c2cccc3nc([C@@H]4CCCN4c4ncnc(N)c4C#N)n(-c4ccccc4)c(=O)c23)cn1` [Example 2, (S)-4-Amino-6-(2-(5-(1-methyl-1H-pyrazol-4-yl)-4-oxo-3-phenyl-3,4-dihydroquinazolin-2-yl)pyrrolidin-1-yl)pyrimidine-5-carbonitrile]: the 50% inhibitory concentration (IC50) came to 150 nM.

For the compound `COc1ncc(-c2cccc3nc([C@@H]4CCCN4c4ncnc(N)c4C#N)n(-c4ccccc4)c(=O)c23)cn1` [Example 3, (S)-4-Amino-6-(2-(5-(2-methoxypyrimidin-5-yl)-4-oxo-3-phenyl-3,4-dihydroquinazolin-2-yl)pyrrolidin-1-yl)pyrimidine-5-carbonitrile], the half-inhibitory concentration (IC50) was 1200 nM.

Regarding `COc1ncc(-c2cccc3nc([C@@H]4CCCN4c4nc(N)nc(C)c4C#N)n(-c4ccccc4)c(=O)c23)cn1` [Example 4, (S)-2-Amino-4-(2-(5-(2-methoxypyrimidin-5-yl)-4-oxo-3-phenyl-3,4-dihydroquinazolin-2-yl)pyrrolidin-1-yl)-6-methylpyrimidine-5-carbonitrile], the half-inhibitory concentration (IC50) was found to be 82 nM.

As to `Cn1cc(-c2c(F)ccc3nc([C@@H]4CCCN4c4ncnc(N)c4C#N)n(-c4ccccc4)c(=O)c23)cn1` [Example 5, (S)-4-Amino-6-(2-(6-fluoro-5-(1-methyl-1H-pyrazol-4-yl)-4-oxo-3-phenyl-3,4-dihydroquinazolin-2-yl)pyrrolidin-1-yl)pyrimidine-5-carbonitrile], the IC50 came to 85 nM.

On to `Cc1nc(N)nc(N2CCC[C@H]2c2nc3ccc(F)c(-c4cnn(C)c4)c3c(=O)n2-c2ccccc2)c1C#N` [Example 6, (S)-2-Amino-4-(2-(6-fluoro-5-(1-methyl-1H-pyrazol-4-yl)-4-oxo-3-phenyl-3,4-dihydroquinazolin-2-yl)pyrrolidin-1-yl)-6-methylpyrimidine-5-carbonitrile], for which the IC50 is 56 nM.

Take `COc1ncc(-c2c(F)ccc3nc([C@@H]4C[C@H](O)CN4c4nc(N)nc(C)c4C#N)n(-c4ccccc4)c(=O)c23)cn1` [Example 7, 2-Amino-4-((2S,4S)-2-(6-fluoro-5-(2-methoxypyrimidin-5-yl)-4-oxo-3-phenyl-3,4-dihydroquinazolin-2-yl)-4-hydroxypyrrolidin-1-yl)-6-methylpyrimidine-5-carbonitrile]: the IC50 was determined as 110 nM.

In the case of `Cn1cc(-c2c(F)ccc3nc([C@@H]4C[C@H](O)CN4c4ncnc(N)c4C#N)n(-c4ccccc4)c(=O)c23)cn1` [Example 8, 4-Amino-6-((2S,4S)-2-(6-fluoro-5-(1-methyl-1H-pyrazol-4-yl)-4-oxo-3-phenyl-3,4-dihydroquinazolin-2-yl)-4-hydroxypyrrolidin-1-yl) pyrimidine-5-carbonitrile], the IC50 is 750 nM.

`COc1ncc(-c2c(F)ccc3nc([C@@H]4C[C@H](O)CN4c4nc(N)nc(C)c4C#N)n(-c4ccccc4)c(=O)c23)s1` [Example 9, 2-Amino-4-((2S,4S)-2-(6-fluoro-5-(2-methoxythiazol-5-yl)-4-oxo-3-phenyl-3,4-dihydroquinazolin-2-yl)-4-hydroxypyrrolidin-1-yl)-6-methylpyrimidine-5-carbonitrile]: the IC50 was determined as 18 nM.

In the case of `CO[C@H]1C[C@@H](c2nc3cccc(-c4cnn(C)c4)c3c(=O)n2-c2ccccc2)N(c2nc(N)nc(C)c2C#N)C1` [Example 10, 2-Amino-4-((2S,4S)-4-methoxy-2-(5-(1-methyl-1H-pyrazol-4-yl)-4-oxo-3-phenyl-3,4-dihydroquinazolin-2-yl)pyrrolidin-1-yl)-6-methylpyrimidine-5-carbonitrile], the half-inhibitory concentration (IC50) was determined as 38 nM.

For the compound `CO[C@H]1C[C@@H](c2nc3cccc(-c4cnn(C)c4)c3c(=O)n2-c2ccccc2)N(c2nc(N)nc3[nH]cnc23)C1` [Example 11, 2-((2S,4S)-1-(2-Amino-9H-purin-6-yl)-4-methoxypyrrolidin-2-yl)-5-(1-methyl-1H-pyrazol-4-yl)-3-phenylquinazolin-4(3H)-one], the IC50 is 230 nM.

With `COc1ncc(-c2cccc3nc([C@@H]4C[C@H](OC)CN4c4nc(N)nc(C)c4C#N)n(-c4ccccc4)c(=O)c23)cn1` [Example 12, 2-Amino-4-((2S,4S)-4-methoxy-2-(5-(2-methoxypyrimidin-5-yl)-4-oxo-3-phenyl-3,4-dihydroquinazolin-2-yl)pyrrolidin-1-yl)-6-methylpyrimidine-5-carbonitrile], the IC50 was 210 nM.

Take `Cc1nc(N)nc(N2CCC[C@H]2c2nc3cccc(-c4cnn(C)c4)c3c(=O)n2-c2ccccc2)c1C#N` [Example 13, (S)-2-Amino-4-methyl-6-(2-(5-(1-methyl-1H-pyrazol-4-yl)-4-oxo-3-phenyl-3,4-dihydroquinazolin-2-yl)pyrrolidin-1-yl)pyrimidine-5-carbonitrile]: the IC50 was 120 nM.

Regarding `Cc1ccccc1-n1c([C@@H]2CCCN2c2ncnc(N)c2C#N)nc2cccc(-c3cnn(C)c3)c2c1=O` [Example 14, (S)-4-Amino-6-(2-(5-(1-methyl-1H-pyrazol-4-yl)-4-oxo-3-(otolyl)-3,4-dihydroquinazolin-2-yl)pyrrolidin-1-yl)pyrimidine-5-carbonitrile], the IC50 was found to be 330 nM.

As to `Cn1cnc(-c2cccc3nc([C@@H]4CCCN4c4ncnc(N)c4C#N)n(-c4ccccc4)c(=O)c23)c1` [Example 15, (S)-4-Amino-6-(2-(5-(1-methyl-1H-imidazol-4-yl)-4-oxo-3-phenyl-3,4-dihydroquinazolin-2-yl)pyrrolidin-1-yl)pyrimidine-5-carbonitrile], the IC50 was greater than 10000 nM.

Turning to `Cc1nc(N)nc(N2C[C@@H](O)C[C@H]2c2nc3cccc(-c4cnn(C)c4)c3c(=O)n2-c2ccccc2)c1C#N` [Example 16, 2-Amino-4-((2S,4S)-4-hydroxy-2-(5-(1-methyl-1H-pyrazol-4-yl)-4-oxo-3-phenyl-3,4-dihydroquinazolin-2-yl)pyrrolidin-1-yl)-6-methylpyrimidine-5-carbonitrile], the IC50 is 48 nM.

Turning to `Cc1nc(N)nc(N2CCC[C@H]2c2nc3cccc(-c4cncnc4)c3c(=O)n2-c2ccccc2)c1C#N` [Example 17, (S)-2-Amino-4-methyl-6-(2-(4-oxo-3-phenyl-5-(pyrimidin-5-yl)-3,4-dihydroquinazolin-2-yl)pyrrolidin-1-yl)pyrimidine-5-carbonitrile], the IC50 came out at 940 nM.

For `COc1cncc(-c2cccc3nc([C@@H]4CCCN4c4nc(N)nc(C)c4C#N)n(-c4ccccc4)c(=O)c23)c1` [Example 18, (S)-2-Amino-4-(2-(5-(5-methoxypyridin-3-yl)-4-oxo-3-phenyl-3,4-dihydroquinazolin-2-yl)pyrrolidin-1-yl)-6-methylpyrimidine-5-carbonitrile], the half-inhibitory concentration (IC50) was determined as 89 nM.

Regarding `Cc1ncc(-c2cccc3nc([C@@H]4CCCN4c4nc(N)nc(C)c4C#N)n(-c4ccccc4)c(=O)c23)cn1` [Example 19, (S)-2-Amino-4-methyl-6-(2-(5-(2-methylpyrimidin-5-yl)-4-oxo-3-phenyl-3,4-dihydroquinazolin-2-yl)pyrrolidin-1-yl)pyrimidine-5-carbonitrile], the IC50 worked out at 390 nM.

One may read the IC50 as the concentration needed to halve the response being measured.
